Where a name gives a salt, the structure may show the parent alone.
molecular target: IRAK4 (Homo sapiens (Human), UniProt Q9NWZ3); assay: IRAK4 Kinase Assay (IMAP fluorescence polarization); type: biochemical; details: GST tagged IRAK4, 100 μM ATP, 30 minutes at 25° C., IMAP FP
Excerpt: Other assays are known in the literature and could be readily performed by those of skill in the art.
The reaction is initiated by the addition of ATP.

IRAK4, sequence (Q9NWZ3 whole entry): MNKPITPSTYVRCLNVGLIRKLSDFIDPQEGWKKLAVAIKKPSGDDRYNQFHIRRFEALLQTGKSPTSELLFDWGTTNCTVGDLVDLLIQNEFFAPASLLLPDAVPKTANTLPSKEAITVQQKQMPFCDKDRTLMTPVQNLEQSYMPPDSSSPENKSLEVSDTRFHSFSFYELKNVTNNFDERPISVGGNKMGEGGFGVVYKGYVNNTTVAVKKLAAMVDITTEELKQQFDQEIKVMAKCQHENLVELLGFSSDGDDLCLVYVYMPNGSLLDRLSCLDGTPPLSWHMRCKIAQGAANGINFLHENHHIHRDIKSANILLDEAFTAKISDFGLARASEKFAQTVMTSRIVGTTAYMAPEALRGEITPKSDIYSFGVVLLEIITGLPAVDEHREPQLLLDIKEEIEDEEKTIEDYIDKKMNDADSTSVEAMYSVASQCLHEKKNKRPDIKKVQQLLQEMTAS

| SMILES | IC50 |
| --- | --- |
| NCCNc1ccn2ncc(C(=O)Nc3cn(-c4cccnc4)nc3C(N)=O)c2n1 [Example 11, 5-[(2-aminoethyl)amino]-N-(3-carbamoyl-1-pyridin-3-yl-1H-pyrazol-4-yl)pyrazolo[1,5-a]pyrimidine-3-carboxamide] | 0.7 nM |
| Cn1cc(NC(=O)c2cnn3ccc(N[C@H]4COCC[C@H]4N)nc23)c(C(N)=O)n1 [Example 1, 5-(((3R,4R)-4-Aminotetrahydro-2H-pyran-3-yl)amino)-N-(3-carbamoyl-1-methyl-1H-pyrazol-4-yl)pyrazolo[1,5-a]pyrimidine-3-carboxamide] | 31 nM |
| CNC(=O)c1nn(CCO)cc1NC(=O)c1ccc2cnc(N[C@@H]3CCCC[C@@H]3N)nn12 [Example 65, 2-{[(1R,2S)-2-aminocyclohexyl]amino}-N-[1-(2-hydroxyethyl)-3-(methylcarbamoyl)-1H-pyrazol-4-yl]pyrrolo[2,1-f][1,2,4]triazine-7-carboxamide trifluoroacetate] | 63 nM |
| CN(C)C(=O)c1nn(C)cc1NC(=O)c1cnn2ccc(N[C@H]3CCCC[C@H]3N)nc12 (relative stereo) [Example 17, 5-{[cis-2-aminocyclohexyl]amino}-N-[3-(dimethylcarbamoyl)-1-methyl-1H-pyrazol-4-yl]pyrazolo[1,5-a]pyrimidine-3-carboxamide trifluoroacetate] | 150 nM |
| NC(=O)c1nn(-c2cccnc2)cc1NC(=O)c1cnn2ccc(N3CCNCC3)nc12 [Example 36, N-(3-carbamoyl-1-pyridin-3-yl-1H-pyrazol-4-yl)-5-piperazin-1-ylpyrazolo[1,5-a]pyrimidine-3-carboxamide trifluoroacetate] | 33 nM |
| Cn1cc(NC(=O)c2cnn3ccc(N[C@@H]4CCCC(F)(F)[C@@H]4N)nc23)c(C(N)=O)n1 [Example 3, 5-{[(1R,2R)-2-amino-3,3-difluorocyclohexyl]amino}-N-(3-carbamoyl-1-methyl-1H-pyrazol-4-yl)pyrazolo[1,5-a]pyrimidine-3-carboxamide trifluoroacetate] | 32 nM |
| Cn1cc(NC(=O)c2ccc3cccnn23)c(C(N)=O)n1 [Example 43, N-(3-carbamoyl-1-methyl-1H-pyrazol-4-yl)pyrrolo[1,2-b]pyridazine-7-carboxamide trifluoroacetate] | 27 nM |
| Cn1cc(NC(=O)c2cnn3ccc(NC4CCCCCC4N)nc23)c(C(N)=O)n1 (stereo not drawn) [Example 13, 5-[(2-aminocycloheptyl)amino]-N-(3-carbamoyl-1-methyl-1H-pyrazol-4-yl)pyrazolo[1,5-a]pyrimidine-3-carboxamide] | 2 nM |
| NC(=O)c1cc(S(N)(=O)=O)c(Cl)cc1NC(=O)c1cnn2cccnc12 [Example 54, N-(2-carbamoyl-5-chloro-4-sulfamoylphenyl)pyrazolo[1,5-a]pyrimidine-3-carboxamide trifluoroacetate] | 310 nM |
| NC(=O)c1cnccc1NC(=O)c1cnn2cccnc12 [Example 49, N-(3-carbamoylpyridin-4-yl)pyrazolo[1,5-a]pyrimidine-3-carboxamide hydrochloride] | 710 nM |
| COCCn1cc(NC(=O)c2ccc3cnc(N[C@@H]4CCCC[C@@H]4N)nn23)c(C(N)=O)n1 [Example 66, 2-{[(1R,2S)-2-aminocyclohexyl]amino}-N-[3-carbamoyl-1-(2-methoxyethyl)-1H-pyrazol-4-yl]pyrrolo[2,1-f][1,2,4]triazine-7-carboxamide trifluoroacetate] | 6 nM |
| CNC(=O)c1nn(C)cc1NC(=O)c1cnn2ccc(N[C@H]3CCCC[C@H]3N)nc12 (relative stereo) [Example 16, 5-{[cis-2-aminocyclohexyl]amino}-N-[1-methyl-3-(methylcarbamoyl)-1H-pyrazol-4-yl]pyrazolo[1,5-a]pyrimidine-3-carboxamide trifluoroacetate] | 18 nM |
| CN1CCCC(Cn2cc(NC(=O)c3cnn4ccc(N[C@@H]5CCCC[C@@H]5N)nc34)c(C(N)=O)n2)C1 (stereo partly drawn) [Example 25, 5-{[(1R,2S)-2-aminocyclohexyl]amino}-N-{3-carbamoyl-1-[(1-methylpiperidin-3-yl)methyl]-1H-pyrazol-4-yl}pyrazolo[1,5-a]pyrimidine-3-carboxamide trifluoroacetate] | 2 nM |
| Cn1cc(NC(=O)c2ccc3cnc(N[C@@H]4CCCC[C@@H]4N)nn23)c(C(N)=O)n1 [Example 61, 2-{[(1R,2S)-2-aminocyclohexyl]amino}-N-(3-carbamoyl-1-methyl-1H-pyrazol-4-yl)pyrrolo[2,1-f][1,2,41triazine-7-carboxamide trifluoroacetate] | 0.7 nM |
| CNC(=O)c1nn(C)cc1NC(=O)c1ccc2cnc(NCCN)nn12 [Example 60, 2-[(2-aminoethyl)amino]-N-[1-methyl-3-(methylcarbamoyl)-1H-pyrazol-4-yl]pyrrolo[2,1-f][1,2,4]triazine-7-carboxamide trifluoroacetate] | 3 nM |
| CNS(=O)(=O)c1ccc(-n2cc(NC(=O)c3cnn4ccc(N5CCNCC5)nc34)c(C(N)=O)n2)cc1 [Example 33, N-{3-Carbamoyl-1-[4-(methylsulfamoyl)phenyl]-1H-pyrazol-4-yl}-5-piperazin-1-ylpyrazolo[1,5-a]pyrimidine-3-carboxamide] | 4 nM |

Further lines, results first:

| IC50 | SMILES |
| --- | --- |
| 4400 nM | NC(=O)c1ncccc1NC(=O)c1cnn2cccnc12 [Example 41, N-(2-Carbamoylpyridin-3-yl)pyrazolo[1,5-a]pyrimidine-3-carboxamide] |
| 670 nM | CC(C)(C)OC(=O)N1CCC(n2cc(NC(=O)c3cnn4cccnc34)c(C(N)=O)n2)CC1 [Example 46, tert-butyl 4-{3-carbamoyl-4-[(pyrazolo[1,5-a]pyrimidin-3-ylcarbonyl)amino]-1H-pyrazol-1-yl}piperidine-1-carboxylate] |
| 470 nM | NC(=O)c1nn(C2CCNCC2)cc1NC(=O)c1cnn2cccnc12 [Example 47, N-(3-carbamoyl-1-piperidin-4-yl-1H-pyrazol-4-yl)pyrazolo[1,5-a]pyrimidine-3-carboxamide hydrochloride] |
| 650 nM | CS(=O)(=O)N1CCC(n2cc(NC(=O)c3cnn4cccnc34)c(C(N)=O)n2)CC1 [Example 48, N-{3-carbamoyl-1-[1-(methylsulfonyl)piperidin-4-yl]-1H-pyrazol-4-yl}pyrazolo[1,5-a]pyrimidine-3-carboxamide] |
| 8500 nM | CC(C)(C)c1cc(NC(=O)c2cnn3cccnc23)c(C(N)=O)s1 [Example 51, N-(5-tert-butyl-2-carbamoylthiophen-3-yl)pyrazolo[1,5-a]pyrimidine-3-carboxamide hydrochloride] |
| 270 nM | Cn1cc(NC(=O)c2cnn3ccc(NCC4CNC(=O)C4)nc23)c(C(N)=O)n1 (stereo not drawn) [Example 29, N-(3-carbamoyl-1-methyl-1H-pyrazol-4-yl)-5-{[(5-oxopyrrolidin-3-yl)methyl]amino}pyrazolo[1,5-a]pyrimidine-3-carboxamide] |
| 33 nM | Cn1cc(NC(=O)c2cnn3ccc(NC4CCCNC4)nc23)c(C(N)=O)n1 (stereo not drawn) [Example 15, N-(3-carbamoyl-1-methyl-1H-pyrazol-4-yl)-5-(piperidin-3-ylamino)pyrazolo[1,5-a]pyrimidine-3-carboxamide hydrochloride] |
| 210 nM | Cn1cc(NC(=O)c2cnn3ccc(NC4CCCCC4O)nc23)c(C(N)=O)n1 (stereo not drawn) [Example 27, N-(3-carbamoyl-1-methyl-1H-pyrazol-4-yl)-5-[(2-hydroxycyclohexyl)amino]pyrazolo[1,5-a]pyrimidine-3-carboxamide] |
